From publication PMC10583824, “The rational design of ARUK2007145, a dual inhibitor of the α and γ isoforms of the lipid kinase phosphatidylinositol 5-phosphate 4-kinase (PI5P4K)” (RSC Medicinal Chemistry, 2023)
In brackets after ≈: the same amount, converted by molar mass.

Legend:
[1] = Mouse liver microsome stability; type: in vitro ADME; settings: mouse liver microsomes half-life; read-out: MLM t½
Method: (§1) ADMET experimental methods […]
Mouse Microsomal stability: analysis was performed by Cyprotex Discovery. Briefly, test compounds in DMSO
protein/mL) in the presence of NADPH (1 mM) at 37 °C. Aliquots were taken at time intervals (0, 5, 15, 30 and
compound remaining, allowing the determination of the half-life for the compound.

PI5P4Kγ+ [2] = target: T1, PI5P4Kγ+ (Homo sapiens, UniProt Q8TBX8, D138G/D197E/E133P/E135D/E153T/E196G/G139A/N195G/S132L/S134N); assay: biochemical
T1 sequence (Q8TBX8 with tags, fused parts or gaps INS131LPN/S132D/E133S/S134Q/E135A/G136R/D138G/G139A/E153T/N195G/E196G/D197E): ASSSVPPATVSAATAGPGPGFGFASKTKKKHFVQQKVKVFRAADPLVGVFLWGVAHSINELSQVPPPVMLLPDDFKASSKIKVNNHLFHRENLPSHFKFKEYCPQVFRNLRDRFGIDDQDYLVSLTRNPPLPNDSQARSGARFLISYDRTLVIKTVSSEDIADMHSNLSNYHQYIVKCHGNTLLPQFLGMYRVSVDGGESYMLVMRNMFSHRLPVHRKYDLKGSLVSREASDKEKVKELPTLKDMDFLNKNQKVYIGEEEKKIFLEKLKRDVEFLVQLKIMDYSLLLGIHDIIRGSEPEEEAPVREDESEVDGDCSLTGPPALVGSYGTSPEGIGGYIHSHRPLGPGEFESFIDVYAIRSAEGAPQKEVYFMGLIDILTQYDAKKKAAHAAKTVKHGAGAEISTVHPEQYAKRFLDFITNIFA

MDR1 (P-gp) = assay: MDR1-MDCK bi-directional permeability and efflux; settings: dog, MDCK-MDR1
Method: (§2) MDR1-MDCK Permeability (bi-directional): was performed by Cyprotex Discovery. Briefly, compounds were administered at 10 µM (1% DMSO final) to the apical or basolateral side of a confluent monolayer of MDR1-MDCK cells, then incubated at 37 °C for 60 minutes before appearance on the opposite side of the monolayer was determined LC-MS/MS. The efflux ratio (ER) is calculated from the ratio of B-A to A-B permeabilities.

MDCK-MDR1 cells = assay: MDR1-MDCK bi-directional permeability and efflux; settings: MDCK-MDR1 cells; A2B; 10 µM
Method: as §2

[3] = Turbidimetric aqueous solubility; type: physicochemical; settings: pH 7.4, turbidimetric
Method: as §1
Turbidimetric aqueous solubility: analysis was performed by Cyprotex Discovery. Compound in DMSO at 10 mM was serially diluted to solutions of 0.1, 0.3, 1 and 3 mM in DMSO, then further diluted 1 in 100 in buffer (0.01 M PBS, pH 7.4, 1% DMSO final). 7 replicate wells of each dilution were equilibrated for 2 hours at 37 °C before absorbance is measured at 620 nm. The solubility is estimated from the concentration of test compound that produces an increase in absorbance above vehicle control (1% DMSO in buffer). […]

PI5P4Kα = target: T2, PI5P4Kα (Homo sapiens, UniProt P48426); settings: for PI5P4Kα pIC50: ADP-Glo, footnote a: inconsistent replicates, value shown is upper limit
T2 sequence (P48426 1-406): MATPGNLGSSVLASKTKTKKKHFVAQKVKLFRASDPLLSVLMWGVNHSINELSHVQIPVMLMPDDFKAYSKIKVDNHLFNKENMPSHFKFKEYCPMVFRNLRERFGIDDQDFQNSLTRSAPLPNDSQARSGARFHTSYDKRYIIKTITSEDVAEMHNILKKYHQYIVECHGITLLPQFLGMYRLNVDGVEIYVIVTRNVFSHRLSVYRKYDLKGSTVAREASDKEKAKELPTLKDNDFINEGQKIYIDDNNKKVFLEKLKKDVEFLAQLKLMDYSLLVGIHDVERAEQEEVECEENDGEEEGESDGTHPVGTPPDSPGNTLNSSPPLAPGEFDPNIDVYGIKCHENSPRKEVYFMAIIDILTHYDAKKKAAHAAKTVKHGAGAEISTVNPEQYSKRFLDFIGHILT

PI5P4Kγ+ [4] = settings: ratio PI5P4Kα IC50 / PI5P4Kγ+ IC50, ADP-Glo
[5] = PI5P4Kγ+ pIC50, ADP-Glo, footnote a: inconsistent replicates, value shown is upper limit
[6] = ADP-Glo pIC50 PI5P4Kγ+, Table S1, two decimals, asterisk not explained

SMILES	half-life at 1 µM [1]	IC50 (PI5P4Kγ+ [2]; [5])	efflux ratio at 60 min, 10 µM (MDR1 (P-gp))	P app (A2B) (MDCK-MDR1 cells)	solubility at 2 h [3]	PI5P4Kα pIC50 (PI5P4Kα)	IC50 (PI5P4Kγ+ [2]; [6])	Fold-selectivity (α IC50/γ IC50) (PI5P4Kγ+ [4])	ADP-Glo pIC50 PI5P4Kα (PI5P4Kα; Table S1, two decimals, asterisk not explained)
CS(=O)(=O)c1ccc(Nc2ncnc3scc(Cl)c23)cc1 [Compound 32]	51.4 min	50.1 nM	3.7	14.2 10^−6 cm s^−1	10 µM (≈ 3.4 µg/mL)	<6.2	–	–	–
Cc1ncccc1-c1cc2ncnc(Nc3ccc(C4CC4)cc3)c2s1 [Compound 38]	1.94 min	50.1 nM	0.91	9.95 10^−6 cm s^−1	3 µM (≈ 1.08 µg/mL)	7.0	52.5 nM	1.9	7.01
Cc1ccncc1-c1cc2c(Nc3ccc(S(C)(=O)=O)cc3)ncnc2s1 [Compound 14]	8.2 min	12.6 nM	34.1	2.45 10^−6 cm s^−1	30 µM (≈ 11.9 µg/mL)	6.0	12.3 nM	79	–
